Measurements as given in patent publication US11845770B2, “Ascaroside derivatives and methods of use” (California Institute of Technology, priority 2019, dated 2023).
“Also recorded” adds a separate entry of the source.

Legend:
[1] = test system: THP1 human macrophage cells; test: Stimulation of THP-1 cells, IL-6 at 6 or 36 hours post stimulation; type: cell-based; details: THP1-derived macrophages, IFNγ + LPS, 0.1 to 500 μM, FIG. 9
Procedure: Human immortalized monocytic THP-1 cells were maintained in phenol red free RPMI 1640 medium containing 10% (v/v) fetal bovine serum (FBS), 2 mM L-glutamine, penicillin (100 units/mL), streptomycin (100 μg/mL), amphotericin B (2.5 μg/mL), and 50 μM beta-mercaptoethanol (BME) at 37° C. with 5% (v/v) CO2. THP-1 cells were seeded in 1 mL of THP-1 medium (cell culture medium containing 10% (v/v) FBS, 2 mM L-glutamine, penicillin (100 units/mL), streptomycin (100 μg/mL), amphotericin B ([…]), and 50 μM BME)/well at a density of 1×10^6 cells/mL in six-well plates. Cells were differentiated by adding 10, 50, or 100 nM phorbol 12-myristate 13-acetate (PMA) to each well before incubating cells for 5.5 h at 37° C. with 5% (v/v) CO2. Without removing the media, different concentrations (either 0, 0.1, 1.0, 10, 100, 200, or 500 μM) of the compound were added to each well. Cells were stimulated, within 30 min by adding 20 ng/mL interferon gamma (IFNγ) and 100 ng/mL lipopolysaccharide (LPS) to each well. Following stimulation, the THP-1 cells were incubated for 6 or 36 hours at 37° C. with 5% (v/v) CO2. Supernatant was collected and stored at −80° C. until use.
IL-6 released from supernatants collected at 6 or 36 hours post stimulation with IFNγ and LPS were measured using the AlphaLISA Human IL-6 detection kit.

[2] = test system: human naïve T cells; test: Stimulation of blood derived naïve T cells with Der p1 (house dust mite) antigen; type: cell-based; details: at 100 μM; human T cells, Der p1 antigen; FIG. 15
Procedure: Naïve T cells from peripheral blood samples were collected and processed using MACSxpress® Whole Blood Pan T Cell Isolation Kit (Miltenyi Biotec), according to the manufacturer's protocol. Isolated naïve T cells were cultured in RPMI medium supplemented with 5% Fetal Bovine Serum (FBS) at 37° C. with 5% (v/v) CO2. T cells were seeded in 24 well plates at a density of 0.5×10^6 cells per well. The cells were pre-treated with the compounds (0, 0.1, 1.0, 10, 100 μM) for 1 hour prior to stimulation. Cells were stimulated with […] of Dermatophagoides pteronyssinus (Der p1) antigen. After 48 hours, fresh […] of Der p1 was added and continued incubating for a further 72 hours at 37° C. with 5% (v/v) CO2. Overall T cells were stimulated with […] of Der p1 antigen for 5 days before supernatants were collected and stored at −80° C. until quantitative detection assays are performed.
Human Interleukin-4 (IL-4), Interleukin-5 (IL-5), Interleukin-6 (IL-6), Interleukin-8 (IL-8), Interleukin-13 ([…]), Interleukin-23 (IL-23), and Interferon gamma (IFNγ) released from supernatants collected post stimulation were measured using Human Magnetic Luminex® Assay Kit. Human Transforming Growth Factor beta (TGFβ) was measured using an Enzyme-Linked Immunosorbent Assay (ELISA)-based analysis.

[3] = test system: EPC2 human esophageal keratinocytes; test: Stimulation of EPC2-hTERT human esophageal keratinocytes with Poly(I:C); type: cell-based; details: 24 hours, increasing concentrations; for percent inhibition relative to Stimulated of TSLP expression: FIG. 19A; for percent inhibition relative to Stimulated of IL-6 expression: FIG. 19B; for percent inhibition relative to Stimulated of MCP-1 expression: FIG. 19C
Procedure: EPC2-hTERT (EPC2) cells were maintained in supplemented keratinocyte serum-free medium (KSFM) with 0.09 mM calcium chloride containing epidermal growth factor (5 ng/mL), bovine pituitary extract ([…]), penicillin (100 units/mL), and streptomycin ([…]) (ThermoFisher #17005042) at 37° C. with 5% (v/v) CO2. EPC2 cells were seeded in 12-well plates at 0.55×10^6 cells per well in supplemented KSFM at 37° C. with 5% (v/v) CO2 and after 6 hours the old media is removed and changed with fresh media. After overnight incubation, the old media is changed to supplemented KSFM containing 1.8 mM calcium chloride and incubated for 72 hours at 37° C. with 5% (v/v) CO2. After the old media is removed and fresh supplemented KSFM containing 1.8 mM calcium chloride is added, the cells are pre-treated with different concentrations of compounds (0, 1, 10, 100, 500, 1000 μM) for 1 hour prior to stimulation. To stimulate the cells, Poly (I:C) (Tocris #4287) is added to the wells at […] concentration without removing the media and incubated for 24 hours at 37° C. with 5% (v/v) CO2. Supernatants are collected in Eppendorf tubes, centrifuged in a microfuge at maximum speed for 10 minutes at 4° C., and the centrifuged supernatants stored at −80° C. until quantitative detection assays are performed. Human Interleukin-6 (IL-6), Monocyte Chemoattractant Protein-1 (MCP-1), and Thymic stromal lymphopoietin (TSLP) released from supernatants collected post stimulation were measured using the AlphaLISA detection kit for human IL-6, MCP-1, and TSLP, respectively.

[4] = test system: THP-1 derived macrophages; test: Stimulation of THP-1 cells, cytokine release 72 h post stimulation; type: cell-based, human; details: 72 h post stimulation (IFN-γ + LPS); 0.1, 1, 10, 100 or 200 μM vs 0 μM
Procedure: Human immortalized monocytic THP-1 cells were maintained in phenol red free RPMI 1640 medium containing 10% (v/v) fetal bovine serum (FBS), 2 mM L-glutamine, penicillin (100 units/mL), streptomycin (100 μg/mL), amphotericin B (2.5 μg/mL), and 50 μM beta-mercaptoethanol (BME) at 37° C. with 5% (v/v) CO2. THP-1 cells were seeded in 1 mL of THP-1 medium (cell culture medium containing 10% (v/v) FBS, 2 mM L-glutamine, penicillin (100 units/mL), streptomycin (100 μg/mL), amphotericin B (2.5 μg/mL), and 50 μM BME)/well at a density of 1 million cells/mL in six-well plates. Cells were differentiated by adding 100 nM phorbol 12-myristate 13-acetate (PMA) to each well before incubating cells for 5.5 h at 37° C. with 5% (v/v) CO2. Without removing the media, different concentrations (either 0, 0.1, 1, 10, 100, or 200 μM) of 1 and 10 were added to each well. Cells were stimulated, within 30 min by adding 20 ng/mL interferon gamma (IFN-γ) and 100 ng/mL lipopolysaccharide (LPS) to each well. Following stimulation, the THP-1 cells were incubated for 72 h at 37° C. with 5% (v/v) CO2. Supernatant was collected and stored at −80° C. until use.
IL-6 release from supernatant collected at 72 hours post stimulation was measured using the AlphaLISA Human IL-6 detection kit.
TNFα release from supernatant collected at 72 hours post stimulation was measured using the AlphaLISA Human TNFα detection kit.

[5] = test system: A549 human alveolar epithelial cells; test: Stimulation of A549 human lung carcinoma cell line, cytokine expression; type: cell-based; details: A549, 10 ng/mL TNFα + 10 ng/mL IL-1β, 48 hours
Procedure: A549 cells are cultured in DMEM supplemented with 2 mM glutamine and 10% Fetal Bovine Serum (FBS) at 37° C. with 5% (v/v) CO2. Cells are grown to approximately 80% confluency before being passage and media is changed every 2-3 days. A549 cells are seeded in 24-well plates at a density of 0.5×10^6 cells per well at 37° C. with 5% (v/v) CO2. The cells are pre-treated with the compounds (0, 1.0, 10, 100 μM) for 1 hour prior to addition of 10 ng/mL of TNFα and 10 ng/mL of IL-1β for 48 hours at 37° C. with 5% (v/v) CO2. Supernatants were collected and stored at −80° C. until quantitative detection assays are performed.
Human Eotaxin, Monocyte Chemoattractant Protein-1 (MCP-1), Interleukin-6 (IL-6), Interleukin-25 (IL-25), Interleukin-33 (IL-33), Thymic stromal lymphopoietin (TSLP), and Granulocyte-Macrophage Colony-Stimulating Factor (GM-CSF) released from supernatants collected post stimulation were measured using Human Magnetic Luminex® Assay Kit. Human CCL5/RANTES was measured using an Enzyme-Linked Immunosorbent Assay (ELISA)-based analysis.

SMILES	percent inhibition relative to Control of IL-6 levels secreted [1]	percent inhibition relative to Stimulated of IL-6 expression [2]	percent inhibition relative to Stimulated of IL-8 expression [2]	percent inhibition relative to Stimulated of TNFα expression [2]	percent inhibition relative to Stimulated of TSLP expression [3]	percent inhibition relative to Stimulated of IL-6 expression [3]	percent inhibition relative to Stimulated of MCP-1 expression [3]	fold change of IL-6 levels secreted by the THP1-derived macrophages [4]	fold change of TNFα levels secreted by the THP1-derived macrophages [4]	percent inhibition relative to Stimulated of GM-CSF expression ([5]; 1.0, 10, 100 μM, FIG. 16, 17)	percent inhibition relative to Stimulated of IL-25 expression ([5]; 1.0, 10, 100 μM, FIG. 16, 17)	percent inhibition relative to Stimulated of IL-33 expression ([5]; 1.0, 10, 100 μM, FIG. 16, 17)	percent inhibition relative to Stimulated of MCP-1 expression ([5]; 1.0, 10, 100 μM, FIG. 16, 17)	percent inhibition relative to Stimulated of Eotaxin expression ([5]; FIG. 18)	percent inhibition relative to Stimulated of IL-6 expression ([5]; FIG. 18)	percent inhibition relative to Stimulated of RANTES expression ([5]; FIG. 18)	percent inhibition relative to Stimulated of TSLP expression ([5]; FIG. 18)
C[C@H](CC/C=C/C(=O)OCC1CCCCC1)O[C@@H]1O[C@@H](C)[C@H](O)C[C@H]1O [Compound 3, cyclohexylmethyl (2E,6R)-6-{[(2R,3R,5R,6S)-3,5-dihydroxy-6-methyloxan-2-yl]oxy}hept-2-enoate]	inhibited IL-6 expression in statistically significant, dose-dependent manner	statistically significant inhibition	statistically significant inhibition	statistically significant inhibition	statistically significant inhibition; also recorded: completely inhibited	inhibited IL-6 expression in statistically significant, dose-dependent manner	inhibited MCP-1 expression in statistically significant, dose-dependent manner	–	–	–	–	–	–	–	–	–	–
C[C@H](CCCCC(=O)OC(C)(C)C)O[C@@H]1O[C@@H](C)[C@H](O)C[C@H]1O [Compound 10, tert-butyl (R)-6-(((2R,3R,5R,6S)-3,5-dihydroxy-6-methyltetrahydro-2H-pyran-2-yl)oxy)heptanoate]	inhibited IL-6 expression in statistically significant, dose-dependent manner	–	–	–	statistically significant inhibition; also recorded: robust blocking	inhibited IL-6 expression in statistically significant, dose-dependent manner	inhibited MCP-1 expression in statistically significant, dose-dependent manner	reduced these levels significantly; also recorded: even more significantly reduced	reduced these levels significantly	overall statistically significant, dose-dependent inhibition	overall statistically significant, dose-dependent inhibition	overall statistically significant, dose-dependent inhibition	overall statistically significant, dose-dependent inhibition	robust, statistically significant inhibition	robust, statistically significant inhibition	robust, statistically significant inhibition	robust, statistically significant inhibition
